What was measured:
[1] = tested on: rice neck blast fungi; type: in vivo, Pyricularia oryzae; conditions: Prothioconazole 120 gai/ha alone or with Azoxystrobin 280, Picoxystrobin 67, Trifloxystrobin 100 gai/ha
[2] = tested on: Pyricularia oryzae causing neck blast; assay: whole plant or invertebrate; type: in vivo; conditions: for Observed efficacy of stobilurin fungicide (%): Table 5(a), Picoxystrobin 67.8 g a.i./ha, Trifloxystrobin 100 g a.i./ha alone

OC(Cc1ccccc1Cl)(Cn1nc[nH]c1=S)C1(Cl)CC1 (centres unmarked) [Prothioconazole, 2-[2-(1-chlorocyclopropyl)-3-(2-chlorophen-yl)-2-hydroxypropyl]-2,4-dihydro-[1,2,4-]-triazole-3-thione]
% Control (rice neck blast) [1]: 41.49% | inhibition at 120 g/ha ([2]; Pyricularia oryzae, read-out: Observed efficacy of demethylation inhibitor fungicide (%)): 49%

CO/C=C(/C(=O)OC)c1ccccc1COc1cccc(C(F)(F)F)n1 [Picoxystrobin]
Observed efficacy of stobilurin fungicide (%) [2]: 42%

CON=C(C(=O)OC)c1ccccc1CON=C(C)c1cccc(C(F)(F)F)c1 [Trifloxystrobin]
Observed efficacy of stobilurin fungicide (%) [2]: 60%

CC(C)OC(=O)C(C(=O)OC(C)C)=C1SCCS1 [Isoprothiolane]
Observed efficacy of isoprothiolane (%) ([2]; Table 5(b), Isoprothiolane 250 g a.i./ha alone): 48%

Reference: patent US20250113825A1 (priority 2022, published 2025)
